Source: ChEMBL document CHEMBL1201862, “PubChem BioAssay data set” (2004)
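Dose response: 5 concentrations. Exposure: 48 h. Format: 96-well plates. Endpoint: linear interpolation; highest concentration if not reached. At the GI50, growth is halved.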 Active and inactive are the calls of the source. No stated cut-off is given here; in the data, active = GI50 up to about 1.1 µM and inactive = higher.

Experiments:
Experiment in all cases: DTP human tumour cell line panel, 48 h
[1] = tested on: OVCAR-4
[2] = tested on: M14
[3] = tested on: HCT-116
[4] = tested on: MDA-MB-435
[5] = tested on: COLO 205
[6] = tested on: A549
[7] = tested on: CCRF-CEM
[8] = tested on: RPMI-8226
[9] = tested on: BT-549
[10] = tested on: MDA-N
[11] = tested on: SF-295
[12] = tested on: HCC 2998
[13] = tested on: SNB-75
[14] = tested on: NCI-H522
[15] = tested on: SK-OV-3
[16] = tested on: KM12
[17] = tested on: SN12C
[18] = tested on: NCI-H460
[19] = tested on: RXF 393
[20] = tested on: SF-268
[21] = tested on: OVCAR-8
[22] = tested on: NCI/ADR-RES
[23] = tested on: SNB-19
[24] = tested on: UO-31
[25] = tested on: DU-145
[26] = tested on: MDA-MB-231
[27] = tested on: OVCAR-3
[28] = tested on: SW-620
[29] = tested on: Malme-3M
[30] = tested on: SK-MEL-2
[31] = tested on: Hs-578T
[32] = tested on: UACC-62
[33] = tested on: TK-10
[34] = tested on: ACHN
[35] = tested on: HCT-15
[36] = tested on: NCI-H23
[37] = tested on: HT-29
[38] = tested on: OVCAR-5
[39] = tested on: MCF7
[40] = tested on: IGROV-1
[41] = tested on: K562
[42] = tested on: SK-MEL-5
[43] = tested on: U-251
[44] = tested on: EKVX
[45] = tested on: CAKI-1
[46] = tested on: 786-0
[47] = tested on: A498
[48] = tested on: T47D
[49] = tested on: UACC-257
[50] = tested on: HOP-92
[51] = tested on: PC-3
[52] = tested on: HOP-62
[53] = tested on: HL-60
[54] = tested on: LOX IMVI
[55] = tested on: NCI-H226
[56] = tested on: SK-MEL-28
[57] = tested on: MOLT-4
[58] = tested on: SF-539

Measured: GI50

C/C(C[n+]1ccccc1)=N\N=C(N)N
> 100 µM: [35]
inactive: [1] > 100 µM | [2] > 100 µM | [3] > 100 µM | [4] > 100 µM | [5] > 100 µM | [6] > 100 µM | [7] > 100 µM | [8] > 100 µM | [9] > 100 µM | [10] > 100 µM | [11] > 100 µM | [12] > 100 µM | [13] > 100 µM | [14] > 100 µM | [15] > 100 µM | [16] > 100 µM | [17] > 100 µM | [18] > 100 µM | [19] > 100 µM | [20] > 100 µM | [21] > 100 µM | [22] > 100 µM | [23] > 100 µM | [24] > 100 µM | [25] > 100 µM | [26] > 100 µM | [27] > 100 µM | [28] > 100 µM | [29] > 100 µM | [30] 73.8 µM | [31] > 100 µM | [32] > 100 µM | [33] > 100 µM | [34] > 100 µM | [36] > 100 µM | [37] > 100 µM | [38] > 100 µM | [39] > 100 µM | [40] > 100 µM | [41] > 100 µM | [42] > 100 µM | [43] > 100 µM | [44] > 100 µM | [45] > 100 µM | [46] > 100 µM | [47] > 100 µM | [48] > 100 µM | [49] > 100 µM | [50] > 100 µM | [51] > 100 µM | [52] > 100 µM | [53] > 100 µM | [54] > 100 µM | [55] > 100 µM | [56] > 100 µM | [57] > 100 µM

O=[N+]([O-])C(C(Cl)=C(Cl)Cl)=C(N(Cc1ccccc1)Cc1ccccc1)N(Cc1ccccc1)Cc1ccccc1
> 100 µM: [35]
inactive: [2] 34.8 µM | [3] 42.1 µM | [4] 28.2 µM | [5] 57 µM | [6] > 100 µM | [7] 22.2 µM | [9] > 100 µM | [10] 45.3 µM | [11] 27.9 µM | [12] 24 µM | [13] > 100 µM | [14] > 100 µM | [15] 38.1 µM | [16] > 100 µM | [17] 29.3 µM | [18] 56.9 µM | [19] 92.9 µM | [20] > 100 µM | [21] > 100 µM | [22] > 100 µM | [23] > 100 µM | [24] 45.8 µM | [25] > 100 µM | [26] 70.6 µM | [27] > 100 µM | [28] > 100 µM | [29] 34 µM | [30] 36.4 µM | [31] > 100 µM | [32] > 100 µM | [33] > 100 µM | [34] 82 µM | [36] > 100 µM | [37] 33 µM | [38] 30.2 µM | [39] > 100 µM | [40] 45.1 µM | [58] 30.3 µM | [41] 33.7 µM | [42] 42.8 µM | [43] > 100 µM | [44] 66.7 µM | [45] > 100 µM | [46] 48.8 µM | [47] 30.5 µM | [48] > 100 µM | [49] > 100 µM | [50] 15.6 µM | [51] 53.7 µM | [52] 43.7 µM | [53] 17.3 µM | [54] 32.4 µM | [55] 36.6 µM | [56] > 100 µM | [57] > 100 µM
